From PMC12207590, “Substrate Specificity of the Organic Cation Transporters MATE1 and MATE2K and Functional Overlap with OCT1 and OCT2” (Journal of Medicinal Chemistry, 2025) come the findings set out here.

Read-outs that look alike come from different tables or passages of the source.

Test [1] deals with MATE2K (Homo sapiens, UniProt Q86VL8). Put plainly: Uptake ratio in MATE2K-overexpressing HEK293 cells vs empty vector (2.5 μM, 1 min, HPLC-MS/MS). In kind it is cell-based.
The target in test [2] is T1, MATE1 (Homo sapiens, UniProt Q96FL8).
T1 sequence (Q96FL8 1-570): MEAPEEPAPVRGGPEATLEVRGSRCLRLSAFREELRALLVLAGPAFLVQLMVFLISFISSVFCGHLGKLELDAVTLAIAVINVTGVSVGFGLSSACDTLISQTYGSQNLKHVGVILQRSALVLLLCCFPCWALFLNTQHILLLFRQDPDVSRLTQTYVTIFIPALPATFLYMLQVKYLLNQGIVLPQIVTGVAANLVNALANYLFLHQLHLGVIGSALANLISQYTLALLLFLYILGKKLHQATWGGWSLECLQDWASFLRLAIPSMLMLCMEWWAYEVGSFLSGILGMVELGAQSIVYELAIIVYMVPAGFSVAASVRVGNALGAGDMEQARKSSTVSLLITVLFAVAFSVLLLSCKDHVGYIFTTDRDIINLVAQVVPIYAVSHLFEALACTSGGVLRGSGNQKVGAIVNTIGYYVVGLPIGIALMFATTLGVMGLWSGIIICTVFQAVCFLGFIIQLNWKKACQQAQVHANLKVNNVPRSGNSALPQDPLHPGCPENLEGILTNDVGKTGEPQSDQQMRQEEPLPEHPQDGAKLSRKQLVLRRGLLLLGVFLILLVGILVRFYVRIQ
Put plainly: Uptake ratio in MATE1-overexpressing HEK293 cells vs empty vector (2.5 μM, 1 min, HPLC-MS/MS). In kind it is cell-based.

[3] abbreviates: fold uptake over empty vector, 2.5 μM, 1 min.
Setting [4] is: mean ratio of uptake in MATE2K-overexpressing HEK293 cells vs empty vector, 2.5 μM, 1 min.
The mark [5] stands for this setting: mean ratio of uptake in MATE1-overexpressing HEK293 cells vs empty vector, 2.5 μM, 1 min.

Chain of MATE2K (Q86VL8 1-566 isoform Q86VL8-3): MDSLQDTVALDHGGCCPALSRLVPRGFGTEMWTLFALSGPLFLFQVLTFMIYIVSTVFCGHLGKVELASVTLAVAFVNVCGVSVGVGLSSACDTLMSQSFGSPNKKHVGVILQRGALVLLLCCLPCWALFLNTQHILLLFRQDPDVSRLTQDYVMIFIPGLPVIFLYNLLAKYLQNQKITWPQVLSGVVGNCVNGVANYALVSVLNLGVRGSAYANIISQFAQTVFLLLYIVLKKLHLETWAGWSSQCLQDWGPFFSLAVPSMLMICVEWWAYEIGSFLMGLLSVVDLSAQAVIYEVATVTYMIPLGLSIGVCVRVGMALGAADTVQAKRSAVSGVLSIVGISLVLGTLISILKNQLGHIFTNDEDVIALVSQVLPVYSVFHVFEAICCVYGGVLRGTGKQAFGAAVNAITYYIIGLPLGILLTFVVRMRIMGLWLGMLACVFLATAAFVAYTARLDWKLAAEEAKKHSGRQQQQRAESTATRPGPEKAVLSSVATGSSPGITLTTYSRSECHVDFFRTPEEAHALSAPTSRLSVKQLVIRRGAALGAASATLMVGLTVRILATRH

Regarding `CCCC[N+]1(C)[C@@H]2C[C@@H](OC(=O)[C@H](CO)c3ccccc3)C[C@H]1[C@@H]1O[C@@H]12` (stereo partly shown) [Butylscopolamine], in test [1], the “MATE2 (uptake ratio)” value came to 1.7, the MATE2K ratio was 1.70 and the “MATE2K ratio in this study” value came out at 1.70. In test [2], the “MATE1 (uptake ratio)” value was 23.84, the MATE1 ratio is recorded as 23.84 and the “MATE1 ratio in this study” value stood at 23.84.

Turning to `CCCC(=O)OC(CC(=O)[O-])C[N+](C)(C)C` (stereo not shown) [Butyrylcarnitine], the MATE2K ratio in test [1] (setting [3]) turned out to be 1.09. Further, in test [1] (setting [4]), the “MATE2 (uptake ratio)” value amounted to 1.09. The MATE1 ratio in test [2] (setting [3]) is 0.82. Besides, the “MATE1 (uptake ratio)” value in test [2] (setting [5]) turned out to be 0.82.

On to `NCCCCCN` [Cadaverine], for which, in test [1], the “MATE2 (uptake ratio)” value was determined as 0.53 and the MATE2K ratio is on record as 0.53. Further, in test [2], the “MATE1 (uptake ratio)” value is 0.23 and the MATE1 ratio worked out at 0.23.

Turning to `COc1cc(CNC(=O)CCCC/C=C/C(C)C)ccc1O` [Capsaicin], the MATE2K ratio in test [1] (setting [3]) amounted to 0.99. Further, the “MATE2 (uptake ratio)” value in test [1] (setting [4]) worked out at 0.99. Moreover, the MATE1 ratio in test [2] (setting [3]) came out at 1.18. Further, in test [2] (setting [5]), the “MATE1 (uptake ratio)” value stood at 1.18.

With `C[N+](C)(C)C[C@H](O)CC(=O)[O-]` [Carnitine], in test [1], the “MATE2 (uptake ratio)” value was 1.13 and the MATE2K ratio was 1.13. Moreover, in test [2], the “MATE1 (uptake ratio)” value turned out to be 1.16 and the MATE1 ratio is 1.16.

With `NCCC(=O)N[C@@H](Cc1cnc[nH]1)C(=O)O` [Carnosine], the MATE2K ratio in test [1] (setting [3]) came to 1.03. Besides, the “MATE2 (uptake ratio)” value in test [1] (setting [4]) was found to be 1.03. For the same compound, the MATE1 ratio in test [2] (setting [3]) was found to be 0.18. Besides, the “MATE1 (uptake ratio)” value in test [2] (setting [5]) worked out at 0.18.

Take `CC(C)(C)NCC(O)COc1cccc2c1CCC(=O)N2` (stereo not shown) [Carteolol]: in test [1] (setting [3]), the MATE2K ratio is listed as 6.67. Moreover, the “MATE2 (uptake ratio)” value in test [1] (setting [4]) is recorded as 6.67. The MATE1 ratio in test [2] (setting [3]) came out at 7.43. In addition, the “MATE1 (uptake ratio)” value in test [2] (setting [5]) was 7.43.

For `COc1ccccc1OCCNCC(O)COc1cccc2[nH]c3ccccc3c12` [Carvedilol (R), Carvedilol], in test [1] (setting [3]), the MATE2K ratio stood at 1.08. In addition, the “MATE2 (uptake ratio)” value in test [1] (setting [4]) came out at 1.08. Also, in test [2] (setting [3]), the MATE1 ratio is given as 1.17. Besides, in test [2] (setting [5]), the “MATE1 (uptake ratio)” value is 1.17.

Consider `COc1ccccc1OCCNCC(O)COc1cccc2[nH]c3ccccc3c12` [Carvedilol (S), Carvedilol], for which the MATE2K ratio in test [1] (setting [3]) was 1.18. In test [1] (setting [4]), the “MATE2 (uptake ratio)” value was 1.18. The MATE1 ratio in test [2] (setting [3]) is on record as 1.19. In addition, the “MATE1 (uptake ratio)” value in test [2] (setting [5]) turned out to be 1.19.

In the case of `CCN(CC)C(=O)Nc1ccc(OCC(O)CNC(C)(C)C)c(C(C)=O)c1` (stereo not shown) [Celiprolol], the MATE2K ratio in test [1] (setting [3]) was found to be 8.76. The “MATE2 (uptake ratio)” value in test [1] (setting [4]) turned out to be 8.76. For the same compound, the MATE1 ratio in test [2] (setting [3]) is listed as 11.01. Also, the “MATE1 (uptake ratio)” value in test [2] (setting [5]) is on record as 11.01.

Take `C[C@@H]1O[C@@]2(CS1)CN1CCC2CC1` [Cevimeline]: the MATE2K ratio in test [1] (setting [3]) worked out at 1.35. Also, the “MATE2 (uptake ratio)” value in test [1] (setting [4]) is reported as 1.35. Also, in test [2] (setting [3]), the MATE1 ratio turned out to be 1.59. In addition, in test [2] (setting [5]), the “MATE1 (uptake ratio)” value was 1.59.

As to `[H]/N=C(\N/C(=N/[H])NCCCCCCNC(=N)NC(=N)Nc1ccc(Cl)cc1)Nc1ccc(Cl)cc1` [Chlorhexidine], in test [1] (setting [3]), the MATE2K ratio is recorded as 0.99. Further, the “MATE2 (uptake ratio)” value in test [1] (setting [4]) is 0.99. Moreover, in test [2] (setting [3]), the MATE1 ratio is on record as 1.08. For the same compound, the “MATE1 (uptake ratio)” value in test [2] (setting [5]) was 1.08.

For `CN(C)CCCN1c2ccccc2Sc2ccc(Cl)cc21` [Chlorpromazine], in test [1] (setting [3]), the MATE2K ratio was 1.33. Moreover, in test [1] (setting [4]), the “MATE2 (uptake ratio)” value stood at 1.33. The MATE1 ratio in test [2] (setting [3]) was 1.42. In test [2] (setting [5]), the “MATE1 (uptake ratio)” value is reported as 1.42.

Turning to `CC1(C)C[C@@H]1C(=O)N/C(=C\CCCCSC[C@H](N)C(=O)O)C(=O)O` [Cilastatin], in test [1], the “MATE2 (uptake ratio)” value came to 0.96 and the MATE2K ratio turned out to be 0.96. Besides, in test [2], the “MATE1 (uptake ratio)” value is 1.13 and the MATE1 ratio worked out at 1.13.

Regarding `C=C[C@H]1CN2CC[C@H]1C[C@H]2[C@H](O)c1ccnc2ccccc12` [Cinchonidine], in test [1], the “MATE2 (uptake ratio)” value amounted to 1.14 and the MATE2K ratio is on record as 1.14. Besides, in test [2], the “MATE1 (uptake ratio)” value stood at 1.16 and the MATE1 ratio was 1.16.

`NC(=O)NCCC[C@H](N)C(=O)O` [Citrulline]: in test [1], the “MATE2 (uptake ratio)” value is 1.26 and the MATE2K ratio was 1.26. In addition, in test [2], the “MATE1 (uptake ratio)” value came to 0.77 and the MATE1 ratio came to 0.77.

As to `CC[C@H]1OC(=O)[C@H](C)[C@@H](O[C@H]2C[C@@](C)(OC)[C@@H](O)[C@H](C)O2)[C@H](C)[C@@H](O[C@@H]2O[C@H](C)C[C@H](N(C)C)[C@H]2O)[C@](C)(OC)C[C@@H](C)C(=O)[C@H](C)[C@@H](O)[C@]1(C)O` [Clarithromycin], in test [1] (setting [3]), the MATE2K ratio came to 1.31. Further, the “MATE2 (uptake ratio)” value in test [1] (setting [4]) turned out to be 1.31. Besides, the MATE1 ratio in test [2] (setting [3]) came to 1.21. Also, the “MATE1 (uptake ratio)” value in test [2] (setting [5]) is recorded as 1.21.

For the compound `C[N+]12CCC(CC1)C(OC(=O)C(O)(c1ccccc1)c1ccccc1)C2` (stereo not shown) [Clidinium], the MATE2K ratio in test [1] (setting [3]) is listed as 1.79. For the same compound, in test [1] (setting [4]), the “MATE2 (uptake ratio)” value amounted to 1.79. In test [2] (setting [3]), the MATE1 ratio is 16.18. Also, the “MATE1 (uptake ratio)” value in test [2] (setting [5]) was determined as 16.18.

For the compound `Clc1cccc(Cl)c1N=C1NCCN1` [Clonidine], in test [1] (setting [3]), the MATE2K ratio was 1.17. Also, in test [1] (setting [4]), the “MATE2 (uptake ratio)” value was 1.17. Moreover, in test [2] (setting [3]), the MATE1 ratio is 1.11. For the same compound, in test [2] (setting [5]), the “MATE1 (uptake ratio)” value stood at 1.11.

For `CC(C)(C)NCC(O)c1ccc(O)c(O)c1` (stereo not shown) [Colterol], the MATE2K ratio in test [1] (setting [3]) stood at 5.80. The “MATE2 (uptake ratio)” value in test [1] (setting [4]) is recorded as 5.8. For the same compound, in test [2] (setting [3]), the MATE1 ratio is recorded as 10.79. Besides, the “MATE1 (uptake ratio)” value in test [2] (setting [5]) is reported as 10.79.

Take `Cc1oc2nc3c(c(NC(=O)CN4CCCC4=O)c2c1C)CCCC3` [Coluracetam]: the MATE2K ratio in test [1] (setting [3]) is listed as 0.97. In addition, in test [2] (setting [3]), the MATE1 ratio was 0.97.

For the compound `CN1C(=O)CC[C@H]1c1cccnc1` [Cotinine], the MATE2K ratio in test [1] (setting [3]) amounted to 1.20. Further, the MATE1 ratio in test [2] (setting [3]) is on record as 1.11.

On to `CN(CC(=O)O)C(=N)N` [Creatine], for which the MATE2K ratio in test [1] is on record as 1.07. In test [2], the MATE1 ratio amounted to 1.01.

As for `CN1CC(=O)NC1=N` [Creatinine], the “MATE2K ratio in this study” value in test [1] (Table S1, 2.5 μM, 1 min) was found to be 1.07. Moreover, in test [1] (setting [3]), the MATE2K ratio worked out at 1.07. Moreover, the “MATE1 ratio in this study” value in test [2] (Table S1, 2.5 μM, 1 min) amounted to 0.83. Moreover, in test [2] (setting [3]), the MATE1 ratio came out at 0.83.

Regarding `CN(C)CCOC(=O)C(c1ccccc1)C1(O)CCCC1` (stereo not shown) [Cyclopentolate], the MATE2K ratio in test [1] (setting [3]) worked out at 1.34. In test [2] (setting [3]), the MATE1 ratio was 1.09.

With `O=c1cccc2n1C[C@@H]1CNC[C@H]2C1` [Cytisine], the MATE2K ratio in test [1] is 1.17. The MATE1 ratio in test [2] is 1.95.

With `Nc1ccc(S(=O)(=O)c2ccc(N)cc2)cc1` [Dapsone], the MATE2K ratio in test [1] (setting [3]) was 0.95. The MATE1 ratio in test [2] (setting [3]) stood at 0.89.

For `N=C(N)N1CCc2ccccc2C1` [Debrisoquine], in test [1] (Table S1, 2.5 μM, 1 min), the “MATE2K ratio in this study” value is 5.05. Further, the MATE2K ratio in test [1] (setting [3]) was found to be 5.05. Moreover, the “MATE1 ratio in this study” value in test [2] (Table S1, 2.5 μM, 1 min) is recorded as 8.16. For the same compound, in test [2] (setting [3]), the MATE1 ratio was 8.16.

Consider `Nc1ncn([C@H]2C[C@H](O)[C@@H](CO)O2)c(=O)n1` [Decitabine], for which the MATE2K ratio in test [1] (setting [3]) is reported as 1.04. For the same compound, the MATE1 ratio in test [2] (setting [3]) worked out at 1.13.

In the case of `COc1cc2c(cc1OC)-c1c(C)c3ccc(OC)c(OC)c3c[n+]1CC2` [Dehydrocorydaline], in test [1], the MATE2K ratio was found to be 2.85. In addition, the MATE1 ratio in test [2] was 9.25.
